Among the data in publication PMC4037324 (Drug metabolism letters, 2012) are Kd and partition ratio values, retold here.

The term Kd denotes the equilibrium constant for the complex coming apart. Low values mean tighter binding, high ones weaker binding.

Data set [1] deals with T1, cytochrome P450 2D6 (CYP2D6) (Homo sapiens, UniProt P10635). As to the kind of experiment: UV-vis spectral binding titration.
Target sequence in this assay (P10635 whole entry): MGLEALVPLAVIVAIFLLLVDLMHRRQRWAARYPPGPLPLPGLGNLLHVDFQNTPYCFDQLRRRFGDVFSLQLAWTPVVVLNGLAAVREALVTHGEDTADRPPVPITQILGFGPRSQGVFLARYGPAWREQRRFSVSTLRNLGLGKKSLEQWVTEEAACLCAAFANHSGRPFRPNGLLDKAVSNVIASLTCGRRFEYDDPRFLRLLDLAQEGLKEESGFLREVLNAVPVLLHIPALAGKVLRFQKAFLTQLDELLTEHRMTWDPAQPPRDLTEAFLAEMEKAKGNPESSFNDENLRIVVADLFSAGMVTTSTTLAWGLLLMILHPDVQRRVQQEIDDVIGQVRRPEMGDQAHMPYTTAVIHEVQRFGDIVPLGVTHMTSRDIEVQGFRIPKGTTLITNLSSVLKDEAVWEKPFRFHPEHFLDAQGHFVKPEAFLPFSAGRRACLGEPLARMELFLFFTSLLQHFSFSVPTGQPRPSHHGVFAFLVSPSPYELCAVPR
The target in data set [2] is T1, cytochrome P450 2D6 (CYP2D6). The data set can be described thus: NADPH-dependent inactivation of bufuralol […]'-hydroxylation in CYP2D6 Supersomes. The format is cell-based.
Target sequence in this assay (P16435 2-677): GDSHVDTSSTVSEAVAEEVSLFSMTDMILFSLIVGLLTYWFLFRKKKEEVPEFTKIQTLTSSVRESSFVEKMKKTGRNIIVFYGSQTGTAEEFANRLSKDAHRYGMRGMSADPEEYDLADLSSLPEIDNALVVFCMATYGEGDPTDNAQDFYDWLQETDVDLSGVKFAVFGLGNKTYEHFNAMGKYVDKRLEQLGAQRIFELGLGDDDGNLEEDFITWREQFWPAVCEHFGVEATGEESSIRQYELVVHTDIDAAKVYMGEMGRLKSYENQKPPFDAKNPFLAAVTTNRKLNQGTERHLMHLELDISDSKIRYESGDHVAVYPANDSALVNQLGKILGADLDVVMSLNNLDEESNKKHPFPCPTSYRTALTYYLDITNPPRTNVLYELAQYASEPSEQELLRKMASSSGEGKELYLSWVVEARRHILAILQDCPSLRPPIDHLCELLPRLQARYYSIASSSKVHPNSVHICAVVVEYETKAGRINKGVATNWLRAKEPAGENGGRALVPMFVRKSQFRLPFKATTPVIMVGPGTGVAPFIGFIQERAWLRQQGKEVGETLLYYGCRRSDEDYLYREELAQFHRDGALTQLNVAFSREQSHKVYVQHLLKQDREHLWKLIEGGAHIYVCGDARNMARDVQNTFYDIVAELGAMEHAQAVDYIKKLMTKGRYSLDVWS
Target sequence in this assay (P10635 whole entry): as the sequence (P10635 whole entry) above

SMILES strings stand for the structures.

Consider `CCc1nc(C)c(CN2CCN(c3cc(C(F)(F)F)ccn3)CC2)[nH]1` [EMTPP], for which, in data set [1], binding was characterised by a dissociation constant (Kd) of 29.8 ± 3.04 µM.

Consider `CNC(C)Cc1ccc2c(c1)OCO2` (centres unmarked) [MDMA], for which, in data set [2], the partition ratio came to 91.
